Experimental data published in the NIST ThermoML archive (doi:10.1016/j.fluid.2010.10.018).

Details: 101.33 kPa, Liquid

CCCCCCCn1cc[n+](C)c1.O=S(=O)([N-]S(=O)(=O)C(F)(F)F)C(F)(F)F
Concentric cylinders viscometry
Details	viscosity [mPa·s]
278 K	235
283 K	182.82
288 K	136.42
293 K	104.17
298 K	81.11
303 K	64.28
308 K	51.75
313 K	42.28
318 K	34.99
323 K	29.3
328 K	24.81
333 K	21.2
338 K	18.3
343 K	15.92
348 K	13.95
353 K	12.31
358 K	10.93
363 K	9.753

CCCCCCCCCCn1cc[n+](C)c1.O=S(=O)([N-]S(=O)(=O)C(F)(F)F)C(F)(F)F
viscosity [mPa·s]
Details	Concentric cylinders viscometry	Falling or rolling sphere viscometry
278 K	403.2	–
283 K	287.62	292.44
288 K	210.53	–
293 K	157.52	159.41
298 K	120.18	–
303 K	93.45	–
308 K	73.92	–
313 K	59.37	60.51
318 K	48.36	–
323 K	39.91	–
328 K	33.32	–
333 K	28.12	29.3
338 K	23.97	–
343 K	20.62	–
348 K	17.88	–
353 K	15.63	16.14
358 K	13.75	–
373 K	–	10
393 K	–	6.8

CCCCCCCCCCCCn1cc[n+](C)c1.O=S(=O)([N-]S(=O)(=O)C(F)(F)F)C(F)(F)F
Concentric cylinders viscometry
Details	viscosity [mPa·s]
283 K	384.51
288 K	277.46
293 K	205
298 K	154.33
303 K	118.68
308 K	93.71
313 K	74.49
318 K	60.08
323 K	49.11
328 K	40.64
333 K	34.01
338 K	28.76
343 K	24.55
348 K	21.14
353 K	18.35
358 K	16.05
363 K	14.12

CCCCCCCCC[n+]1ccn(C)c1.O=S(=O)([N-]S(=O)(=O)C(F)(F)F)C(F)(F)F
Capillary tube (Ostwald / Ubbelohde) method
Details	viscosity [mPa·s]
278 K	348.2
283 K	249.7
288 K	183.88
293 K	138.55
298 K	106.41
303 K	83.35
308 K	66.2
313 K	53.43
318 K	43.76
323 K	36.28
328 K	30.43
333 K	25.77
338 K	22.12
343 K	19.09
348 K	16.61
353 K	14.53
358 K	12.82
363 K	11.4

CCCCCCCCCCCCCCn1cc[n+](C)c1.O=S(=O)([N-]S(=O)(=O)C(F)(F)F)C(F)(F)F
Concentric cylinders viscometry
Details	viscosity [mPa·s]
313 K	98.04
318 K	78.06
323 K	63.09
328 K	51.68
333 K	42.83
338 K	35.87
343 K	30.36
348 K	25.93
353 K	22.33
358 K	19.38
363 K	16.95

CCCCCCCCn1cc[n+](C)c1.O=S(=O)([N-]S(=O)(=O)C(F)(F)F)C(F)(F)F
Concentric cylinders viscometry
Details	viscosity [mPa·s]
278 K	297.03
283 K	214.79
288 K	159.11
293 K	120.46
298 K	93.05
303 K	73.2
308 K	58.53
313 K	47.5
318 K	39.09
323 K	32.56
328 K	27.43
333 K	23.35
338 K	20.06
343 K	17.38
348 K	15.18
353 K	13.35
358 K	11.83

CCCCCn1cc[n+](C)c1.O=S(=O)([N-]S(=O)(=O)C(F)(F)F)C(F)(F)F
viscosity [mPa·s]
Details	Concentric cylinders viscometry	Falling or rolling sphere viscometry
278 K	164.73	–
283 K	123.09	133.33
288 K	93.65	–
293 K	72.76	78.44
298 K	57.81	–
303 K	46.38	–
308 K	37.92	–
313 K	31.43	33.94
318 K	26.38	–
323 K	22.4	–
328 K	19.2	–
333 K	16.6	18.52
338 K	14.48	–
343 K	12.73	–
348 K	11.27	–
353 K	10.04	10.89
358 K	8.996	–
373 K	–	7.19
393 K	–	5.15

CCCCCC[n+]1ccn(C)c1.O=S(=O)([N-]S(=O)(=O)C(F)(F)F)C(F)(F)F
viscosity [mPa·s]
Details	Concentric cylinders viscometry	Falling or rolling sphere viscometry
278 K	212.3	–
283 K	155.94	–
288 K	117.29	–
293 K	90.13	87.84
298 K	70.61	–
303 K	56.3	–
308 K	45.61	–
313 K	37.47	37.08
318 K	31.19	–
323 K	26.25	–
328 K	22.35	–
333 K	19.2	19.29
338 K	16.65	–
343 K	14.55	–
348 K	12.81	–
353 K	11.35	11.48
358 K	10.13	–
373 K	–	7.46
393 K	–	5.28

CCCn1cc[n+](C)c1.O=S(=O)([N-]S(=O)(=O)C(F)(F)F)C(F)(F)F
viscosity [mPa·s]
Details	Concentric cylinders viscometry	Falling or rolling sphere viscometry
278 K	122.17	–
283 K	92.6	–
288 K	71.78	–
293 K	56.78	56.4
298 K	45.75	–
303 K	37.43	–
308 K	31.07	–
313 K	26.13	26.17
318 K	22.23	–
323 K	19.11	–
328 K	16.58	–
333 K	14.5	14.82
338 K	12.79	–
343 K	11.35	–
348 K	10.14	–
353 K	9.118	9.251
358 K	8.24	–
373 K	–	6.32

CCCC[n+]1ccn(C)c1.O=S(=O)([N-]S(=O)(=O)C(F)(F)F)C(F)(F)F
viscosity [mPa·s]
Details	Concentric cylinders viscometry	Falling or rolling sphere viscometry
278 K	137.62	–
283 K	104.14	–
288 K	80.16	–
293 K	62.99	63.05
298 K	50.62	–
303 K	41.12	–
308 K	33.89	–
313 K	28.28	28.63
318 K	23.92	–
323 K	20.45	–
328 K	17.66	–
333 K	15.38	16
338 K	13.5	–
343 K	11.93	–
348 K	10.61	–
353 K	9.501	9.911
358 K	8.553	–
373 K	–	6.548
393 K	–	4.785

CCn1cc[n+](C)c1.O=S(=O)([N-]S(=O)(=O)C(F)(F)F)C(F)(F)F
viscosity [mPa·s]
Details	Concentric cylinders viscometry	Falling or rolling sphere viscometry
278 K	76.05	–
283 K	60.15	59.8
288 K	48.47	–
293 K	39.71	39.54
298 K	33	–
303 K	27.78	–
308 K	23.66	–
313 K	20.37	20.49
318 K	17.69	–
323 K	15.5	–
328 K	13.68	–
333 K	12.16	12.42
338 K	10.87	–
343 K	9.784	–
348 K	8.848	–
353 K	8.041	8.036
358 K	7.34	–
